“And” between values parts separate entries of the source, which are not always exact repeats. Identical values can stand only once. Like-named read-outs stand apart in the source and are kept apart here.
Assays:
[1] = molecular target: T1, SaSDH (Staphylococcus aureus, UniProt Q6GGA5); assay: SaSDH kinetic parameters for substrates; format: biochemical, methicillin-resistant S. aureus; conditions: substrate of SaSDH; for Km: 25 °C, random bi-bi fit; for Vmax: saturating levels of both substrates; for Kd: read-out: Kia (dissociation constant)
T1 construct: 6His-tag (N); made in house; host or cells: E. coli BL21(DE3)pLysS
T1 sequence (Q6GGA5 1-268): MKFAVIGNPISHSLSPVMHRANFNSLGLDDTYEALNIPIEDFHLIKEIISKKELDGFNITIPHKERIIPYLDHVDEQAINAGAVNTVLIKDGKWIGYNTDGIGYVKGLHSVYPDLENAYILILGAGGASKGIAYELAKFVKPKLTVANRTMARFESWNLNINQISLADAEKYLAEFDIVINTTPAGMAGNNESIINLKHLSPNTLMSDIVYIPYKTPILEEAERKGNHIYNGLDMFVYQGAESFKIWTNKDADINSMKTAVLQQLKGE
Method: Data were fitted to several models of bi-substrate reactions, all of which were analyzed using SigmaPlot Enzyme Kinetics Module v1.3. […] These were used to derive the turnover number (Kcat) and Kcat/Km.
(§1) Enzyme activity was measured spectrophotometrically at 25 °C at 340 nm, following NADPH generation (ε = 6.19 × 10^3 M^−1 cm^−1). The reaction mixture contained buffer A plus 1 mM SHK, 1 mM NADP^+, and 50 ng of SaSDH.
The data were linearized by the double-reciprocal transformation of Lineweaver and Burk. […] The inversion of the data matrix allowed the determination of the dissociation constant for NADP^+.

[2] = molecular target: T1, SaSDH; assay: SaSDH inhibition assays (single concentration and inhibition kinetics); format: biochemical; conditions: for inhibition at 200 µM: inhibition of SaSDH activity, compound at 200 µM; for IC50: i0.5 at 400 μM of substrate, 400 μM, 50% inhibition concentration; for Pattern (inhibition mechanism): Cornish-Bowden plot
Method: Once the model was built, a rigid body docking procedure for virtual screening with a library of small molecules was performed. Because the enzyme is absent in humans, we selected the substrate (SHK) binding site as the target for virtual screening (Figure 3A). From the one thousand small molecules studied, a database of 38,355 poses was generated. The one hundred molecules with the highest binding energies were selected, and the capacities of these molecules to inhibit SaSDH were assessed. Inhibition assays using a concentration of 200 µM of the latter molecules were performed.
In order to study the type of inhibition of compounds on SaSDH, pharmacological and kinetic parameters (i0.5, Kic and Kiu) were determined at various concentrations of these compounds, using SHK and NADP^+ respectively, as substrates. In Figure 4, the plots of reciprocal rate multiplied by the substrate concentrations (S/v) versus inhibitor concentration in the presence of SHK and NADP^+ are shown. The intercept of the extrapolated line on the [i] axis, that corresponds to each compound concentration, is ‒i0.5. This provided a single and accurate way of estimating i0.5, which is important if it is to be used to calculate the inhibition constant.
as §1
The data were fitted to equations for competitive, uncompetitive, non-competitive and mixed inhibition, respectively, using the kinetic module of SigmaPlot program v12.3. All experiments were repeated at least twice.
The 50% inhibition concentrations (i0.5) of compounds against SaSDH were determined and analyzed by fitting to [Equation (2)]. The inhibition mechanism and inhibition constant (Kic and Kiu) were studied by fitting the inhibition data to [Equation (3)]: [drawing 12] (2) [drawing 13] (3)
Kic is the inhibition constant derived from the intercepts, whereas Kiu is the constant derived from the slope of 1/i0.5 vs v/V plots.

[3] = Kic, substrate shikimate, inhibitor binding to the substrate site
[4] = Kiu, substrate NADP^+, inhibitor binding to enzyme-substrate complex

For `NC(=O)c1ccc[n+]([C@@H]2O[C@H](COP(=O)([O-])OP(=O)(O)OC[C@H]3O[C@@H](n4cnc5c(N)ncnc54)[C@H](OP(=O)(O)O)[C@@H]3O)[C@@H](O)[C@H]2O)c1` [NADP^+], the Kcat [1] was 146 s⁻¹ and 146.16 s⁻¹, the Km [1] was 42.6 ± 9.9 µM and the Vmax [1] was 251 µmol/min/mg and 251.41 ± 7.2 µmol/min/mg. The Kd [1] was 21 µM.
`O=C(O)C1=C[C@@H](O)[C@@H](O)[C@H](O)C1` [Shikimate, shikimate] was tested, and the Km [1] was 37.5 ± 3.7 µM, the Vmax [1] was 233.6 ± 1.5 µmol/min/mg and the Vmax ([1]; listed as SHK) was 233 µmol/min/mg. The Kd ([1]; listed as SHK) was 21.2 µM and the Kd [1] was 21.2 µM.
Compound `COC(=O)c1sc2ccccc2c1O` [compound 62] has an inhibition at 200 µM [2] of 33%.
Work on `O=C(O)c1ccc(-c2cccs2)s1` [compound 238, 2,2'-bithiophene-5-carboxylic acid] yielded a Ki [2, 3] of 9.53 µM, a Ki [2, 4] of 48.3 µM and an IC50 ([2]; substrate NADP^+) of 108 µM. For the same compound, the IC50 ([2]; substrate shikimate) was 123 µM, the inhibition at 200 µM [2] was 87% and the “Pattern (inhibition mechanism)” value ([2]; with respect to NADP^+) was “Uncompetitive”. For the same compound, the “Pattern (inhibition mechanism)” value ([2]; with respect to shikimate) was “Competitive”.
Compound `OCC1COc2ccccc2C1` (stereo not drawn) [compound 291] has an inhibition at 200 µM [2] of 31%.
`O=C(O)c1ccc(CN2CCOCC2)cc1` [compound 306] showed an inhibition at 200 µM [2] of 31%.
Compound `CN(C)CCOc1ccccc1CO` [compound 463] has an inhibition at 200 µM [2] of 45%.
`CN(CCO)c1cc(C(F)(F)F)nc2ccccc12` [compound 626] showed an inhibition at 200 µM [2] of 49%.
For `CCCCC#Cc1ccc(C(=O)O)o1` [compound 637], the inhibition at 200 µM [2] was 29%.
Work on `O=C(O)c1csc(-c2ccc(C(F)(F)F)cc2)n1` [compound 692] yielded an inhibition at 200 µM [2] of 31%.
In the case of `Cc1c(O)ccc2c1OC(C)(C)CC2=O` [compound 766, 7-hydroxy-2,2,8-trimethyl-2,3-dihydro-4H-chromen-4-one], the Ki [2, 3] is reported as 19.7 µM and 19.8 µM, the Ki [2, 4] is reported as 11.3 µM and the IC50 ([2]; substrate NADP^+) is reported as 564 µM. For the same compound, the IC50 ([2]; substrate shikimate) was 343 µM, the inhibition at 200 µM [2] was 87% and the “Pattern (inhibition mechanism)” value ([2]; with respect to NADP^+) was “Uncompetitive”. The “Pattern (inhibition mechanism)” value ([2]; with respect to shikimate) was “Competitive”.
Work on `O=C1COc2cc(O)ccc21` [compound 894, 6-hydroxy-2,3-dihydrobenzo[b]furan-3-one] yielded a Ki ([2]; Kic, substrate NADP^+, inhibitor binding to the substrate site) of 901 µM, a Ki [2, 3] of 58.3 µM and a Ki [2, 4] of 5.2 µM. It also gave a Ki ([2]; Kiu, substrate shikimate, inhibitor binding to enzyme-substrate complex) of 1470 µM, an IC50 ([2]; substrate NADP^+) of 614 µM and an IC50 ([2]; substrate shikimate) of 143 µM. For the same compound, the inhibition at 200 µM [2] was 99%, the “Pattern (inhibition mechanism)” value ([2]; with respect to NADP^+) was “Mixed-uncompetitive” and the “Pattern (inhibition mechanism)” value ([2]; with respect to shikimate) was “Mixed-competitive”.

Source: PMC6270726 (Molecules, 2014)
